Data taken from patent US11612605B2, “(+)-azasetron for use in the treatment of ear disorders” (SENSORION, priority 2016, dated 2023).
Like-named read-outs stand apart in the source and are kept apart here.

How the values were obtained:
[1] = tested on: cochlear outer hair cells (OHC); experiment: Outer hair cell survival after cisplatin (cochleograms from whole-mount fixed cochleae); type: in vivo, female Wistar rats; details: 14 days of treatment after cisplatin
Method: Two days after baseline audiometry (ABR and DPOAE measurements), oral treatment was initiated in both groups 15 minutes before 8 mg/kg cisplatin infusion during 30 minutes under isoflurane anesthesia. On D14, ABR and DPOAE measurements were performed to evaluate ABR threshold shifts and DPOAE amplitude loss relative to baseline and the temporal bones of each animal were subsequently preserved with PFA fixation for histology (FIG. 5).
To evaluate the effect of (+) azasetron on outer hair cells (OHC) survival after cisplatin administration at an ototoxic dose, cochleograms of surviving OHCs were constructed from whole-mount fixed cochleae.

[2] = tested on: unilateral vestibular dysfunction induced by intratympanic kainic injection; experiment: Kainate model of peripheral excitotoxic vestibular injury: spontaneous nystagmus and roll angle deviation; type: in vivo, female Long-Evans; details: 5.6 mg/kg intraperitoneal daily for 3 days
Method: The capacity of (+)-azasetron besylate to protect against lesions in the peripheral vestibular system was assessed using the kainate model of peripheral excitotoxic injury. Following unilateral, transtympanic injection of the excitotoxic kainic acid leading to the swelling, retraction and uncoupling of synapses between vestibular sensory hair cells and primary afferent neurons, baseline recordings of spontaneous nystagmus (pathological eye movements caused by a deficit of the vestibuloculomotor reflex) and postural deviations are performed before randomization to treatment groups. Recordings were repeated daily for 3 days, then again at D6 and D13 after lesion induction.
Following lesion induction and baseline recordings at t=1h, female Long-Evans were randomized to receive intraperitoneal injections of placebo (n=18) or 5.6 mg/kg (+)-azasetron besylate daily for 3 days (t=1/24/[…]). Recording of spontaneous nystagmus and postural deviations were repeated at 2/4/6/24/25/48/49 hours and D6/D13 after initial lesion induction (FIG. 9).

[3] = Pharmacokinetics study: exposure in inner ear, perilymph and tail plasma after single oral dose; type: in vivo, Wistar rats; details: for AUC: po, 10 mg/kg, 10 mg/kg p.o., per-interval AUC of azasetron free-base
Source text: The 72 male Wistar rats received on 28 Jan. 2016 from Janvier (Janvier, Le Genest-St-Isle) were assigned to the study. They were divided in 3 groups of 24 animals each, one group per test article. Each group was divided in […] subgroups according to the 6-termination time-points.
72 Wistar rats were subjected to oral single dose administration of the test article, racemic azasetron hydrochloride, azasetron hydrochloride (+) or azasetron hydrochloride (−), and sacrificed at different time-points to assess the exposure of the test article in the inner ear, perilymph, and plasma. • Group racemic azasetron: 24 male Wistar, 4 rats per time-point: 10 mg/kg azasetron HCl dissolved in NaCl 0.9%. Administrated as 5 mL/kg p.o.; • Group azasetron (+): 24 male Wistar, 4 rats per time-point: 10 mg/kg (+)-azasetron HCl dissolved in NaCl 0.9%. Administrated as 5 mL/kg p.o.; • Group azasetron (−): 24 male Wistar, 4 rats per time-point: 10 mg/kg (−)-azasetron HCl dissolved in NaCl 0.9%. Administrated as 5 mL/kg p.o.
There were 6 termination time-points for each test article. At time-points 15/30/60/120/240/480 minutes after administration: peripheral plasma from the tail was sampled. The animals were sacrificed by i.v. administration of 0.25 mL/rat of a 160 mg/mL pentobarbital solution. Following sacrifice, the heart blood and both tympanic bullas (left and right) were sampled.
Both tympanic bullas (left and right) were collected, however, only the left one was used for the perilymph and inner ear analysis. The right bulla was stored at −20° C. for future needs when required. For animal IDs 1 and 4, the right bulla was used for the sampling of perilymph and inner ear.
The left bulla was dissected fresh. Briefly, the bulla was opened via the auditory opening to reveal the bone surrounding the cochlea after which the tip of the bone was removed with forceps and a 10 μL pipette tip was inserted to withdraw perilymph.
Upon exposure of the tip of the cochlea, 2 μL of perilymph (fluid) could be recovered from the bulla. The perilymph was brought to 10 μL by the addition of 8 μL water, and then extract via the addition of 30 μL of acetonitrile. After that, the samples were centrifuged and the supernatant was transferred to a glass vial appropriate for the HPLC-MS auto-sampler.
Following recovering of the perilymph, the bones of the inner ear and cochlea components were removed with fine forceps and added to a tared Eppendorf tube. The collection was weighed and brought to 10 mg with the addition of water and placed on ice until extraction. 30 μL of acetonitrile was added and the tubes were incubated in an ultrasound bath, after which they were centrifuged and the supernatant was transferred to a glass vial appropriate for the HPLC-MS auto-sampler. In the process or removing the bones of the inner ear, they were finely distributed in the media and broken by forceps. (Due to the very low volume of the tissue and its fine structure, separate grinding is considered risky vs the potential losses to plastic and media. The materials are very fine in nature and the bone particles are small thus providing only short interfaces to media. The absence of fat and the incubation in solvent is intended to provide sufficient solubility of active ingredient).
The acetonitrile used in the sample preparation for bio-analysis contained the internal standard for the HPLC-MS analysis.
30 μL acetonitrile including the internal standard were added to each 10 μL plasma sample. After adding the acetonitrile, the samples were mixed by vortex and further centrifuged. The supernatant was transferred to a glass vial appropriate for the HPLC-MS auto-sampler.
The LC system comprised an Agilent 1260 liquid chromatography equipped with a binary pump and a column oven, together with a PAL HTS-xt auto-sampler. It is linked to the AB SCIEX TRIPLE QUADTM 4500 (triple-quadrupole) instrument with an ESI interface and a switching valve integrated (Mass spectrometric analysis). […]

CN1C(=O)COc2c(C(=O)NC3CN4CCC3CC4)cc(Cl)cc21.O=S(=O)(O)c1ccccc1 (single isomer, unassigned; (+)) [(+)-azasetron besylate]
conservation of OHCs in the basal turn of the cochlea versus placebo [1]: up to 11 fold | number of surviving OHCs versus placebo ([1]; p<0.001): significantly higher | improvement (reduction) of roll angle deviation (postural head tilt) versus placebo ([2]; p<0.001): 30-62% | improvement of spontaneous nystagmus versus placebo ([2]; p=0.048): 6-48%

CN1C(=O)COc2c(C(=O)N[C@@H]3CN4CCC3CC4)cc(Cl)cc21 [(−)-azasetron]
Total AUC Inner ear ([3]; 10 mg/kg p.o. single dose): 27829 nM·min | Total AUC Perilymph ([3]; 10 mg/kg p.o. single dose): 11901 nM·min | Total AUC Tail plasma ([3]; 10 mg/kg p.o. single dose): 65448 nM·min | concentration at 15 min ([3]; male, Wistar, rat, inner ear, oral, 10 mg/kg p.o. single dose, Time 15 (min), read-out: Average Inner ear concentration (ng azasetron free-base/g tissue)): 29 ng/g | concentration at 30 min ([3]; male, Wistar, rat, inner ear, oral, 10 mg/kg p.o. single dose, Time 30 (min), read-out: Average Inner ear concentration (ng azasetron free-base/g tissue)): 27 ng/g | concentration at 60 min ([3]; male, Wistar, rat, inner ear, oral, 10 mg/kg p.o. single dose, Time 60 (min), read-out: Average Inner ear concentration (ng azasetron free-base/g tissue)): 8 ng/g | concentration at 120 min ([3]; male, Wistar, rat, inner ear, oral, 10 mg/kg p.o. single dose, Time 120 (min), read-out: Average Inner ear concentration (ng azasetron free-base/g tissue)): 46 ng/g | concentration at 240 min ([3]; male, Wistar, rat, inner ear, oral, 10 mg/kg p.o. single dose, Time 240 (min), read-out: Average Inner ear concentration (ng azasetron free-base/g tissue)): 21 ng/g | concentration at 480 min ([3]; male, Wistar, rat, inner ear, oral, 10 mg/kg p.o. single dose, Time 480 (min), read-out: Average Inner ear concentration (ng azasetron free-base/g tissue)): 3 ng/g | AUC ([3]; male, Wistar, rat, inner ear, Time 15 (min), read-out: Inner ear AUC (converted)): 0.0102 µM·h | AUC ([3]; male, Wistar, rat, inner ear, Time 30 (min), read-out: Inner ear AUC (converted)): 0.0198 µM·h | AUC ([3]; male, Wistar, rat, inner ear, Time 60 (min), read-out: Inner ear AUC (converted)): 0.0247 µM·h | AUC ([3]; male, Wistar, rat, inner ear, Time 120 (min), read-out: Inner ear AUC (converted)): 0.0772 µM·h | AUC ([3]; male, Wistar, rat, inner ear, Time 240 (min), read-out: Inner ear AUC (converted)): 0.193 µM·h | AUC ([3]; male, Wistar, rat, inner ear, Time 480 (min), read-out: Inner ear AUC (converted)): 0.139 µM·h | AUC ([3]; male, Wistar, rat, perilymph, Time 15 (min), read-out: Perilymph AUC (converted)): 0.00507 µM·h | AUC ([3]; male, Wistar, rat, perilymph, Time 30 (min), read-out: Perilymph AUC (converted)): 0.0102 µM·h | AUC ([3]; male, Wistar, rat, perilymph, Time 60 (min), read-out: Perilymph AUC (converted)): 0.015 µM·h | AUC ([3]; male, Wistar, rat, perilymph, Time 120 (min), read-out: Perilymph AUC (converted)): 0.0363 µM·h | AUC ([3]; male, Wistar, rat, perilymph, Time 240 (min), read-out: Perilymph AUC (converted)): 0.0747 µM·h | AUC ([3]; male, Wistar, rat, perilymph, Time 480 (min), read-out: Perilymph AUC (converted)): 0.0571 µM·h | AUC ([3]; male, Wistar, rat, tail plasma, Time 15 (min), read-out: Tail plasma AUC (converted)): 0.0203 µM·h | AUC ([3]; male, Wistar, rat, tail plasma, Time 30 (min), read-out: Tail plasma AUC (converted)): 0.034 µM·h | AUC ([3]; male, Wistar, rat, tail plasma, Time 60 (min), read-out: Tail plasma AUC (converted)): 0.0515 µM·h | AUC ([3]; male, Wistar, rat, tail plasma, Time 120 (min), read-out: Tail plasma AUC (converted)): 0.17 µM·h | AUC ([3]; male, Wistar, rat, tail plasma, Time 240 (min), read-out: Tail plasma AUC (converted)): 0.416 µM·h | AUC ([3]; male, Wistar, rat, tail plasma, Time 480 (min), read-out: Tail plasma AUC (converted)): 0.4 µM·h
